From paper PMC7160333, “Physiological Role of Glutamate Dehydrogenase in Cancer Cells” (Frontiers in Oncology, 2020)
Read-outs that look alike come from different tables or passages of the source.

Key:
[1] = target: RLM GDH1 (Rattus norvegicus, UniProt P10860); assay: GDH reverse (aminating) reaction activity in rat liver mitochondria (RLM); type: biochemical; conditions: RLM; for K0.5 NH4+: reverse reaction, Hill equation; for Km: read-out: Km NH4+
Protocol: Tightly coupled mitochondria were isolated from fed-rat liver (RLM) and AS-30D cells (HepM) as described elsewhere ([89], [90]). […] The resulting mitochondrial fractions were resuspended at 30 to 80 mg protein/mL in SHE buffer with 1 mM PMSF, 1 mM EDTA, 5 mM DTT, and 10% glycerol, and stored at −70°C until use for determination of enzyme activity and Western blotting.

[2] = tested on: cancer cells; assay: Viability by trypan blue assay in 2-D cultures with ammonium; type: cell-based, human; conditions: all culture conditions
[3] = tested on: HeLa MCTS; assay: HeLa multicellular tumor spheroid (MCTS) growth with ammonium; type: cell-based, human
Protocol: (§1) After 5 days, the culture medium was refreshed, and the MCTSs formed were placed under slow orbital shaking (20–50 rpm) at 37°C and 95% air/5% CO2. […] The spheroid growth was determined at the indicated times by measuring MCTS diameter with a calibrated reticule (1/10 mm) in an inverted phase contrast microscope (Zeiss, Thornwood, NY, USA) ([86]).

[4] = tested on: MDA-MB-231 MCTS; assay: MDA-MB-231 multicellular tumor spheroid (MCTS) growth with ammonium; type: cell-based, human
Protocol: as §1

[5] = target: GDH in HepM and RLM (Rattus norvegicus, UniProt P10860); assay: GDH reverse reaction kinetics, summary statements for HepM and RLM; type: biochemical
Protocol: The decrease in the absorbance at 340 nm was followed for several minutes (~10 min) to allow for full development of the pronounced enzyme hysteretic behavior, although the initial signal decrease (1–3 min) was taken to calculate the GDH rates. The protein concentration ranges used for each mitochondrial type were well within the linearity range of enzyme activity. To calculate the kinetic parameters, the experimental data were fitted by non-linear regression analysis to the Hill or MWC equation, using the Microcal Origin 5.0 software (OriginLab, Northampton, MA, USA).

[6] = tested on: 3T3 fibroblasts; conditions: for Duplication time: 3T3, 2-D culture, n = 3; for Maximal cellular densities: reached at day 5
Protocol: (§2) All cancer and non-cancer cell lines used were purchased from ATCC and cultured in DMEM (Sigma-Aldrich) supplemented with 10% fetal bovine serum (Biowest, Nuaillé, France) and 10,000 U penicillin/streptomycin (Sigma-Aldrich) and placed under a humidified atmosphere of 5% CO2/95% air at 37°C.
(§3) Cell growth was followed by counting cellular density every 24 h during 7 to 8 days. […] The duplication time was determined by using the following equation: n=1/[3.32(logNF-logNI)]/(tF-tI) , where NF represents the number of cultured cells at the end of the exponential growth phase; NI represents the number of cells at the beginning of the growth curve; tF is the final time at which cells were harvested, and tI is the initial culture time. The specific growth rate μ was calculated from the slope of a semilogarithmic plot of cell densities in the exponential growth phase vs. time ([88]).

[7] = tested on: total GDH activity (GDH1 + GDH2) in HeLa and MCF-7 cells; conditions: 5 mM NH4Cl in culture medium, 5 days, data not shown
[8] = tested on: MCF-7 cells; set-up: method as in PMID 28303961; conditions: MCF-7, ammonium 2–5 mM; cited from earlier work
[9] = tested on: GDH; conditions: GDH1, reported values; cited from earlier work
[10] = tested on: recombinant human GDH isoforms (GDH1 and GDH2), bovine liver GDH, Ox brain GDH, dogfish liver GDH, rat brain GDH, and bovine brain GDH isoforms; set-up: method as in PMID 4381532, PMID 7588764, PMID 17924438, PMID 23420347, PMID 7190024; conditions: pH range of 7.4–8.7; cited from earlier work
[11] = tested on: PC3 cells; conditions: for Maximal cellular densities: reached at day 5
Protocol: as §2, §3

[12] = tested on: HeLa cells; conditions: for Duplication time: 2-D culture, n = 3; for Maximal cellular densities: reached at day 4
Protocol: as §2, §3

[13] = tested on: SiHa cells; conditions: for Duplication time: 2-D culture, n = 3; for Maximal cellular densities: reached at day 6
Protocol: as §2, §3

[14] = tested on: A549 cells; conditions: for Duplication time: A549, 2-D culture, n = 3; for Maximal cellular densities: reached at day 6
Protocol: as §2, §3

[15] = tested on: MCF-7 cells; conditions: for Duplication time: MCF-7, 2-D culture, n = 3; for Maximal cellular densities: reached at day 6
Protocol: as §2, §3

[16] = tested on: DU145 cells; conditions: for Duplication time: DU145, 2-D culture, n = 3; for Maximal cellular densities: reached at day 5
Protocol: as §2, §3

[17] = tested on: HCT116 cells; conditions: for Duplication time: HCT116, 2-D culture, n = 3; for Maximal cellular densities: reached at day 7
Protocol: as §2, §3

[18] = tested on: Colo 205 cells; conditions: for Duplication time: Colo 205, 2-D culture, n = 3; for Maximal cellular densities: reached at day 6
Protocol: as §2, §3

[19] = tested on: MDA-MB-231 cells; conditions: for Duplication time: MDA-MB-231, 2-D culture, n = 3
Protocol: as §2, §3

[20] = tested on: HFF-1 fibroblasts; conditions: for Duplication time: HFF-1, 2-D culture, n = 3; for Maximal cellular densities: reached at day 5
Protocol: as §2, §3

RLM GDH1, sequence (P10860 54-558): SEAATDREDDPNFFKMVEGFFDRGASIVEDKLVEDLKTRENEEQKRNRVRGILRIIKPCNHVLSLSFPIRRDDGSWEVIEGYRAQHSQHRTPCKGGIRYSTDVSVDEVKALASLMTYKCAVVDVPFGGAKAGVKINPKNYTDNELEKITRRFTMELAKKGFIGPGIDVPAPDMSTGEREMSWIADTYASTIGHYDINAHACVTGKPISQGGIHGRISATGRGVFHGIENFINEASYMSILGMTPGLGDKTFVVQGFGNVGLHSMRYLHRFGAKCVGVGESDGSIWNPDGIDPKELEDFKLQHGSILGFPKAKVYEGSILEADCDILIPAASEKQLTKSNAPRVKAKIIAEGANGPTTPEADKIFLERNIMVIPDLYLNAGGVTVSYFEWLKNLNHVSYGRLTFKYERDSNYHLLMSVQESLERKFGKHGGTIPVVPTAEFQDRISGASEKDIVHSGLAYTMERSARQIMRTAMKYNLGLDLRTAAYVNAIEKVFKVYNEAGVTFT
GDH in HepM and RLM, sequence (P10860 54-558): as above

## Cl.N [NH4Cl, Ammonium chloride]
[1]; pH 7.2, 37°C
  K0.5 NH4+: 23.9 ± 3.7 mM
[1]; pH 7.2, Hill equation
  nH (Hill coefficient) for NH4+: 1.97 ± 0.8
[1]; pH 7.2, MWC equation, GTP inhibition, saturating ADP
  Km: 8.5 ± 4.5 mM
[1]; pH 7.2, MWC equation, with ADP
  Km: 18 ± 11 mM
[1]; pH 7.5, 37°C
  K0.5 NH4+: 18.2 ± 5.9 mM
[1]; pH 7.5, Hill equation
  nH (Hill coefficient) for NH4+: 1.4 ± 0.4
[1]; pH 7.5, MWC equation, GTP inhibition, saturating ADP
  Km: 5.6 ± 3.6 mM
[1]; pH 7.5, MWC equation, with ADP
  Km: 8.8 ± 4.1 mM
[2]
  Viability: higher than 90%
[3]; 5 and 10 mM ammonium
  MCTS growth (diameter): inhibited
[3]; ammonium supplementation
  MCTS growth (diameter): did not stimulate growth
[4]; ammonium 10 mM
  MCTS growth (diameter): clearly toxic
[4]; ammonium 0.5–5 mM
  MCTS growth (diameter): promoted enhanced growth rates
[5]; Hill equation, HepM and RLM, summary
  K0.5 for NH4+: over 20 mM
[5]; MWC equation, pH 7.5, summary of Table 3, read-out: Km for ammonium
  Km: ~9 mM
[6]; +5 mM NH4Cl
  Duplication time: 46 ± 2 h
[6]; +10 mM NH4Cl
  Duplication time: 60 ± 1 h
[6]; 3T3, +5 mM NH4Cl
  Maximal cellular densities: 45 ± 3 ×10^3
[6]; 3T3, +10 mM NH4Cl
  Maximal cellular densities: 36 ± 2 ×10^3
[6]; read-out: IC50 for decrease of growth, mouse 3T3 fibroblasts, data not shown
  IC50: ~1 mM
[7]
  Change of total GDH activity: did not alter the total GDH activity or induced a slight (~20%) decrease
[8]
  Cell proliferation: only slightly stimulated
[9]
  reported K0.5 for ammonium: 15 to 60 mM
[10]
  K0.5 NH4+: 6.5 to 80 mM
[11]; PC3, 2-D culture, +10 mM NH4Cl, n = 3
  Duplication time: 26 ± 1 h
[11]; PC3, +5 mM NH4Cl
  Maximal cellular densities: 136 ± 2 ×10^3
[11]; PC3, +10 mM NH4Cl
  Maximal cellular densities: 141 ± 1.4 ×10^3
[12]; +5 mM NH4Cl
  Duplication time: 25.5 ± 2 h
  Maximal cellular densities: 153 ± 13 ×10^3
[12]; +10 mM NH4Cl
  Duplication time: 24 ± 2 h
  Maximal cellular densities: 163 ± 9 ×10^3
[12]; NH4Cl 1–10 mM, data not shown
  Rescue of growth after glutamine removal from the culture medium: did not rescue their growth
[13]; +5 mM NH4Cl
  Duplication time: 51 ± 4 h
  Maximal cellular densities: 86 ± 7 ×10^3
[13]; +10 mM NH4Cl
  Duplication time: 55 ± 5 h
  Maximal cellular densities: 82 ± 5 ×10^3
[14]; +5 mM NH4Cl
  Duplication time: 20 ± 2 h
[14]; +10 mM NH4Cl
  Duplication time: 17 ± 3 h
[14]; A549, +5 mM NH4Cl
  Maximal cellular densities: 49 ± 4 ×10^3
[14]; A549, +10 mM NH4Cl
  Maximal cellular densities: 56 ± 2 ×10^3
[15]; +5 mM NH4Cl
  Duplication time: 37 ± 2 h
[15]; +10 mM NH4Cl
  Duplication time: 45 ± 6 h
[15]; MCF-7, +5 mM NH4Cl
  Maximal cellular densities: 72 ± 6 ×10^3
[15]; MCF-7, +10 mM NH4Cl
  Maximal cellular densities: 76 ± 5 ×10^3
[16]; DU145, 0.1 and 0.5 mM NH4Cl, data not shown
  Proliferation rates: increased proliferation rates
[16]; +5 mM NH4Cl
  Duplication time: 32 ± 2 h
[16]; +10 mM NH4Cl
  Duplication time: 35 ± 3 h
[16]; DU145, +5 mM NH4Cl
  Maximal cellular densities: 92 ± 6 ×10^3
[16]; DU145, +10 mM NH4Cl
  Maximal cellular densities: 85 ± 4 ×10^3
[17]; +5 mM NH4Cl
  Duplication time: 45 ± 1 h
[17]; +10 mM NH4Cl
  Duplication time: 39 ± 2 h
[17]; HCT116, +5 mM NH4Cl
  Maximal cellular densities: 76 ± 11 ×10^3
[17]; HCT116, +10 mM NH4Cl
  Maximal cellular densities: 80 ± 13 ×10^3
[18]; +5 mM NH4Cl
  Duplication time: 48 ± 2 h
[18]; +10 mM NH4Cl
  Duplication time: 44 ± 4 h
[18]; Colo 205, +5 mM NH4Cl
  Maximal cellular densities: 68 ± 6 ×10^3
[18]; Colo 205, +10 mM NH4Cl
  Maximal cellular densities: 66 ± 6 ×10^3
[19]; +5 mM NH4Cl
  Duplication time: 26 ± 3 h
[19]; +10 mM NH4Cl
  Duplication time: 25 ± 1 h
[19]; MDA-MB-231, +5 mM NH4Cl, reached at day 4
  Maximal cellular densities: 145 ± 13 ×10^3
[19]; MDA-MB-231, NH4Cl 1–10 mM, data not shown
  Rescue of growth after glutamine removal from the culture medium: did not rescue their growth
[20]; +5 mM NH4Cl
  Duplication time: 38 ± 12 h
[20]; +10 mM NH4Cl
  Duplication time: 55 ± 2 h
[20]; HFF-1, +5 mM NH4Cl
  Maximal cellular densities: 60 ± 10 ×10^3
[20]; HFF-1, +10 mM NH4Cl
  Maximal cellular densities: 46 ± 3 ×10^3
[20]; read-out: IC50 for decrease of growth, human HFF-1 fibroblasts, data not shown
  IC50: ~1 mM
